# Measurements from PubChem BioAssay (NCI).
#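 Step 1: Grow cells in 96-well plates. Step 2: Expose to compound for 48 hours at 5 concentrations. Step 3: Interpolate endpoints linearly; if unreached, use highest concentration. TGI marks complete inhibition of growth.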
# Tests used:
# Assay in all cases: DTP human tumour cell line panel, 48 h
# [1] = tested on: 786-0 renal
# [2] = tested on: A498 renal
# [3] = tested on: ACHN renal
# [4] = tested on: BT-549 breast
# [5] = tested on: CAKI-1 renal
# [6] = tested on: COLO 205 colon
# [7] = tested on: DU-145 prostate
# [8] = tested on: EKVX NSCLC
# [9] = tested on: HCC-2998 colon
# [10] = tested on: HCT-116 colon
# [11] = tested on: HCT-15 colon
# [12] = tested on: HL-60(TB) leukemia
# [13] = tested on: HOP-62 NSCLC
# [14] = tested on: HS 578T breast
# [15] = tested on: HT29 colon
# [16] = tested on: IGROV1 ovarian
# [17] = tested on: K-562 leukemia
# [18] = tested on: KM12 colon
# [19] = tested on: LOX IMVI melanoma
# [20] = tested on: MALME-3M melanoma
# [21] = tested on: MCF7 breast
# [22] = tested on: MDA-MB-231 breast
# [23] = tested on: MDA-MB-435
# [24] = tested on: MDA-N
# [25] = tested on: MOLT-4 leukemia
# [26] = tested on: NCI-H226 lung
# [27] = tested on: NCI-H23 lung
# [28] = tested on: NCI-H460 lung
# [29] = tested on: NCI-H522 lung
# [30] = tested on: NCI/ADR-RES ovarian
# [31] = tested on: OVCAR-3 ovarian
# [32] = tested on: OVCAR-4 ovarian
# [33] = tested on: OVCAR-5 ovarian
# [34] = tested on: OVCAR-8 ovarian
# [35] = tested on: PC-3 prostate
# [36] = tested on: RPMI-8226 leukemia
# [37] = tested on: RXF 393 renal
# [38] = tested on: SF-268 CNS
# [39] = tested on: SF-295 CNS
# [40] = tested on: SF-539 CNS
# [41] = tested on: SK-MEL-2 melanoma
# [42] = tested on: SK-MEL-28 melanoma
# [43] = tested on: SK-MEL-5 melanoma
# [44] = tested on: SN12C renal
# [45] = tested on: SNB-19 CNS
# [46] = tested on: SNB-75 CNS
# [47] = tested on: SR leukemia
# [48] = tested on: SW-620 colon
# [49] = tested on: TK-10 renal
# [50] = tested on: U251 CNS
# [51] = tested on: UACC-257 melanoma
# [52] = tested on: UACC-62 melanoma
# [53] = tested on: UO-31 renal
smiles,measurement,setting,value
N#Cc1nsnc1-c1nc(-c2nsnc2C#N)nc(-c2nsnc2C#N)n1,TGI,[1],> 100 µM
same,TGI,[2],> 100 µM
same,TGI,[3],> 100 µM
same,TGI,[4],> 100 µM
same,TGI,[5],> 100 µM
same,TGI,[6],> 100 µM
same,TGI,[7],> 100 µM
same,TGI,[8],> 100 µM
same,TGI,[9],> 100 µM
same,TGI,[10],> 100 µM
same,TGI,[11],> 100 µM
same,TGI,[12],> 100 µM
same,TGI,[13],> 100 µM
same,TGI,[14],94 µM
same,TGI,[15],> 100 µM
same,TGI,[16],> 100 µM
same,TGI,[17],> 100 µM
same,TGI,[18],> 100 µM
same,TGI,[19],> 100 µM
same,TGI,[20],> 100 µM
same,TGI,[21],> 100 µM
same,TGI,[22],> 100 µM
same,TGI,[23],> 100 µM
same,TGI,[24],> 100 µM
same,TGI,[25],> 100 µM
same,TGI,[26],> 100 µM
same,TGI,[27],> 100 µM
same,TGI,[28],> 100 µM
same,TGI,[29],> 100 µM
same,TGI,[30],> 100 µM
same,TGI,[31],> 100 µM
same,TGI,[32],> 100 µM
same,TGI,[33],> 100 µM
same,TGI,[34],> 100 µM
same,TGI,[35],> 100 µM
same,TGI,[36],> 100 µM
same,TGI,[37],> 100 µM
same,TGI,[38],> 100 µM
same,TGI,[39],> 100 µM
same,TGI,[40],> 100 µM
same,TGI,[41],> 100 µM
same,TGI,[42],> 100 µM
same,TGI,[43],> 100 µM
same,TGI,[44],> 100 µM
same,TGI,[45],> 100 µM
same,TGI,[46],> 100 µM
same,TGI,[47],> 100 µM
same,TGI,[48],> 100 µM
same,TGI,[49],> 100 µM
same,TGI,[50],> 100 µM
same,TGI,[51],> 100 µM
same,TGI,[52],> 100 µM
same,TGI,[53],> 100 µM
